According to patent publication US20240270771A1, “Compound containing phosphate group, pharmaceutical composition containing same, preparation method therefor and use thereof” (SHANGHAI RAISING PHARMACEUTICAL CO., LTD., priority 2021, published 2024):

What was measured:
APP/PSi 2×Tg mice = assay: Water maze behavior test; assay type: in vivo; details: 200 mg/kg oral gavage once a day, 8 weeks; for The number of crossing the platform: test day 6, model group 0.9 ± 0.6; for Time in the target quadrant: test day 6, model group 12.8 ± 2.9, in s
Excerpt: Rodents in water have a strong incentive to escape from the water environment, and can escape from the water environment in the fastest and most direct way. The process of learning to escape from the water environment reflects the learning ability of the animals. Spatial positioning according to the surrounding environment and purposefully swimming to a safe place in the water (such as a platform) can reflect the spatial learning and memory ability of the animals.
The test animals were APP/PSi 2×Tg mice (C57BL/6 wild-type mice as the blank control). Mice of 6-8 months old, weighing 20-40 g, were purchased from The Jackson laboratory.
APP/PSi mice are APP/PSi di-transgenic Alzheimer's disease (2×Tg-AD) model mice, and the appearance of deposition of Aβ is earlier than the pathological changes of tau protein for several months, which can more truly simulate the clinical process and pathological changes of Alzheimer's disease.
Preparation of 0.7% CMC-Na: 0.7 g CMC-Na was added with a proper amount of water, heated for dissolution, left for cooling to room temperature, diluted to 100 mL, and stored at 4° C.
Preparation of BTMP: 100 mg of BTMP was added to 10 mL of 0.7% CMC-Na to prepare a 10 mg/mL suspension for use.
Preparation of test compound and comparative compound 1: 100 mg of the compound to be tested was weighted and added to 10 mL of 0.7% CMC-Na to prepare a 10 mg/mL suspension for use.
The laboratory mice were randomly divided into groups (9 or 10 mice per group). Mice in each group were administrated at a dosage of 0.2 mL/10 g body weight by oral gavage once a day for eight weeks.
The mice in the blank control group, model group and test group were orally administrated for 8 consecutive weeks according to the above administration dosage/specification. The water maze training and test were started in the last week of administration. The water maze training and test lasted for six days, with a training period of five days and a testing period of one day. In addition, during the training and testing period of water maze (6 days in total), the indoor conditions such as lighting etc. were kept consistent, the room was kept quiet, and the interference from the environment and personnel was excluded.
2.1. Preparation before the test: a proper amount of water was put into the water maze pool with the water temperature being kept at 22±3° C. The platform was placed in a fixed position (target quadrant) and 1 cm below the water surface, and titanium dioxide was added until the water became white, so that the platform could not be seen clearly.
2.2. Training period (days 1 to 5): on each day, before the first quadrant training, each mouse was placed on the platform for 15 s (to increase the mice's sense of security on the platform), and then the mouse was put into the pool (with its head facing the pool wall) from the quadrant where the platform located, and the swimming time was set as 60 s. If the mouse found the platform within 60 s and stayed for 5 s, it was regarded as the platform being found successfully. If the mouse could not find the platform, then the time was recorded as 60 s. The mouse was guided to the platform and stayed for 20 s, the mouse was then taken out, and the quadrant training for this mouse was ended.
After the first quadrant training, the mouse was trained in the remaining three quadrants sequentially, where it is not necessary to place the mouse on the platform for 15 s before training. The training of each mouse in every two quadrants was conducted at an interval of 10-15 minute. In this way, the training was performed continuously for 5 days.
2.3. Testing period (day 6): 24 hours after the last training, the platform was removed, and the mouse was dropped at the position opposite to the quadrant where the platform previously located (i.e., the position furthest away from the platform). […]

[1] = test system: sodium nitrite-induced hypoxic memory impairment model; assay: Jumping stand test, sodium nitrite-induced hypoxic memory impairment model; assay type: in vivo, ICR mice; details: sodium nitrite 120 mg/kg s.c., compound 200 mg/kg gavage once a day 3 weeks; for Number of errors: model group 1.4 ± 0.7; for Latency period: model group 93.8 ± 90.25
Experimental: The mice employed in the present test were purchased from Xipuer-BIKAI Laboratory Animal Co., Ltd., and they were SPF grade ICR mice, 3-4 weeks old, weighing 16-18 g.
Sodium nitrite (NaNO2) was purchased from Sinopharm Chemical Reagent Co., Ltd.; Product No.: 10020018; Specification: analytical grade.
Test article preparation: 100 mg of the compound to be tested was weighed and added to 10 mL of 0.7% CMC-Na to prepare a 10 mg/mL suspension for use.
The laboratory mice were randomly divided into groups (9 or 10 mice per group). The mice in each group were administrated at a dosage of 0.2 mL/10 g body weight by oral gavage once a day for three weeks.
The laboratory animals were administered by gavage for 3 consecutive weeks according to the above administration dosage/specification. Training was started on the last day of administration, and the test was conducted 24 hours later.
The laboratory animals were administered by gavage for three weeks. One hour after the last administration, the animals were trained with YLS-3 TB jumping stand detector. After the training, sodium nitrite (mouse: 120 mg/kg) was injected subcutaneously (in the neck) immediately. The jumping stand test was conducted 24 hours later. The latency period (the time from the start of counting to the first time of jumping off the stand) and the number of errors (the number of electric shock) were recorded.
The YLS-3 TB jumping stand detector were divided into five compartments by transparent boards. The bottom of the compartment was covered with a copper grid and applied with a voltage of 50 V A rubber pad stand with a height of 3.5 cm and a diameter of 3.5 cm was placed in each compartment to serve as a safe area for mice to avoid electric shock. Training of laboratory mice before the formal test: the laboratory mice were placed in the small compartment with a stand to get familiar with the environment for 5 min (the five compartments were connected), and then electrified for stimulation (all the laboratory mice were on the grid at this time), at the voltage of 50 V and current of 1.00 mA. Mice have the habit of jumping from a high place. If they jump, they will be shocked to produce memory. The current was applied for 5 min, which served as the training process.
Testing: the animals were put on the stand in the jumping compartment one by one. The time interval for putting each animal was 5 s. After the first animal was put on the stand, the electricity was applied immediately. The electricity was applied for 6 min. At the end of applying electricity, data were printed, and the latency period (the time from the start of counting to the first time of jumping off the stand) and the number of errors (the number of electric shock during the testing period) were recorded. Due to the different time of putting the animal in, the time difference can be subtracted according to the actual time of putting the animal.

[2] = test day 6, model group 45.0 ± 8.8

CCCC(CCC)C(=O)S/C(CCOP(=O)(O)O)=C(/C)N(C=O)Cc1cnc(C)nc1N [Compound 1, (Z)—S-(2-(N-((4-amino-2-methylpyrimidin-5-yl)methyl)formamido)-5-(phosphonooxy)pent-2-en-3-yl) 2-propylpentanethioate]
The number of crossing the platform (APP/PSi 2×Tg mice): 2.4 ± 0.8 | Time in the target quadrant (APP/PSi 2×Tg mice): 19.6 ± 3.4 | Latency period (APP/PSi 2×Tg mice; test day 6, model group 45.0 ± 8.8, 200 mg/kg): 22.0 ± 1.5 s | Latency period (APP/PSi 2×Tg mice; test day 6, model group 45.0 ± 8.8, listed as compound 1, 200 mg/kg): 22.0 ± 1.5 s | Number of errors [1]: 0.4 ± 0.7 | Latency period [1]: 228.8 ± 155.9 s

CCC(CC)C(=O)S/C(CCOP(=O)(O)O)=C(/C)N(C=O)Cc1cnc(C)nc1N [Compound 2, (Z)—S-(2-(N-((4-amino-2-methylpyrimidin-5-yl)methyl)formamido)-5-(phosphonooxy)pent-2-en-3-yl) 2-ethylbutanethioate]
The number of crossing the platform (APP/PSi 2×Tg mice): 2.2 ± 0.6 | Time in the target quadrant (APP/PSi 2×Tg mice): 18.8 ± 2.6 | Latency period (APP/PSi 2×Tg mice; [2]): 22.7 ± 1.1 s | Number of errors [1]: 0.6 ± 0.8 | Latency period [1]: 210.4 ± 117.3 s

C/C(=C(\CCOP(=O)(O)O)SC(=O)c1ccco1)N(C=O)Cc1cnc(C)nc1N [Compound 9, (Z)—S-(2-(N-((4-amino-2-methylpyrimidin-5-yl)methyl)formamido)-5-(phosphonooxy)pent-2-en-3-yl) furan-2-carbothioate]
The number of crossing the platform (APP/PSi 2×Tg mice): 2.3 ± 0.5 | Time in the target quadrant (APP/PSi 2×Tg mice): 18.6 ± 1.6 | Latency period (APP/PSi 2×Tg mice; [2]): 22.8 ± 1.3 s | Number of errors [1]: 0.6 ± 0.7 | Latency period [1]: 209.3 ± 110.4 s
